Structures are written as SMILES.

Consider 13 molecules from patent US7223766B2, “Bi-cyclic pyrimidine inhibitors of TGFβ” (Scios, Inc., priority 2003, dated 2007).

One experiment addresses T1, TGF R1 kinase (Homo sapiens, UniProt P36897).
T1 sequence (P36897 34-503): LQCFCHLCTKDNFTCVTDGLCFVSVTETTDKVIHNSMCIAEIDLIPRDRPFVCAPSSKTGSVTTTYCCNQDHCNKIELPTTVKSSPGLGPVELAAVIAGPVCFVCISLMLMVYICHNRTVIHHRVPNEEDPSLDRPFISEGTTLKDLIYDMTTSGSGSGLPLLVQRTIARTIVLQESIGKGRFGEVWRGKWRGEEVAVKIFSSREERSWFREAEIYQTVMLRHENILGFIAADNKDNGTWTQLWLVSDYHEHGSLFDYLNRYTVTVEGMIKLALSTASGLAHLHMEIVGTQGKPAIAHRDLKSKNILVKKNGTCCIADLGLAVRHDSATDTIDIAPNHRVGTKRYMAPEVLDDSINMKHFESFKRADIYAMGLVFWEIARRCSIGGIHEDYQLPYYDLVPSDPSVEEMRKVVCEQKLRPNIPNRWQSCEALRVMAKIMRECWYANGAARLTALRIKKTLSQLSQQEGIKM
Briefly: TGF-β inhibition assay: phosphorylation of the substrate casein by TGF R1 kinase. The class given is biochemical. The conditions noted are these: table names no assay; casein assay of Example 2: 2.5 μM ATP, 100 μM casein, 6.4 nM TGF R1 kinase. The procedure: Invention compounds were tested for their abilities to inhibit the phosphorylation of the substrate casein. The assay was conducted as follows: Compound dilutions and reagents were prepared fresh daily. Compounds were diluted from DMSO stock solutions to 2 times the desired assay concentration, keeping final DMSO concentration in the assay less than or equal to 1%. TGF RI kinase was diluted to 4 times the desired assay concentration in buffer and DTT. ATP and casein were diluted into 4× reaction buffer, and gamma-^32P-ATP was added at 50 μCi/mL.
The assay was performed by adding 10 μl of the enzyme to 20 μl of the compound solution. The reaction was initiated by the addition of 10 μl of the casein/ATP mix. Final assay conditions included 2.5 μM ATP, 100 μM casein, 6.4 nM TGF R1 kinase, and […] in 20 mM Tris buffer, pH 7.5. The reactions were incubated at room temperature for 45 minutes. The reactions were then stopped by transferring 23 μl of reaction mixture onto a phosphocellulose 96-well filter plate, which had been pre-wetted with 15 μl of 0.25M H3PO4 per well. After 5 minutes, the wells were washed 4× with 75 mM H3PO4 and once with 95% ethanol. The plate was dried, scintillation cocktail was added to each well, and the wells were counted in a Packard TopCount microplate scintillation counter. The ability of a compound to inhibit the enzyme was determined by comparing the counts obtained in the presence of the compound to those of the positive control (in the absence of compound) and the negative control (in the absence of enzyme).
In both of the assays referenced above, IC50 values can be determined with curve-fitting plots available with common software packages. Approximate IC50 values can be calculated using formula: IC50 (app)=A×i/(1−A) where A=fractional activity and i=total inhibitor concentration.
For orientation: IC50 means the concentration that gives 50% inhibition. Higher therefore signals weaker potency. `CNC(=O)c1cnccc1Nc1nc(-c2cc(Cl)ccc2F)nc2c1CCC2` [Compound 35] yielded an IC50 of 49 nM.

`CN(C)CCCNC(=O)c1cnccc1Nc1nc(-c2cc(Cl)ccc2F)nc2c1CCC2` [Compound 69] had an IC50 of 90.2 nM.

With `O=C(NCCCN1CCOCC1)c1cnccc1Nc1nc(-c2cc(Cl)ccc2F)nc2c1CCC2` [Compound 70], half-maximal inhibition (IC50) required 529 nM. Against the preceding molecule, the IC50 is about 5.9-fold higher.

Molecule `O=C(NCCCn1ccnc1)c1cnccc1Nc1nc(-c2cc(Cl)ccc2F)nc2c1CCC2` [Compound 71] displayed an IC50 of 844 nM. Compared with the last molecule, the IC50 is about 1.6-fold higher.

Molecule `O=C(NCCCN1CCCC1=O)c1cnccc1Nc1nc(-c2cc(Cl)ccc2F)nc2c1CCC2` [Compound 72] returned a 50% inhibitory concentration (IC50) of 6460 nM.

`CN1CCCC1CCNC(=O)c1cnccc1Nc1nc(-c2cc(Cl)ccc2F)nc2c1CCC2` (stereo not drawn) [Compound 73] yielded an IC50 of 309 nM.

`CC1CCCCN1CCCNC(=O)c1cnccc1Nc1nc(-c2cc(Cl)ccc2F)nc2c1CCC2` (stereo not drawn) [Compound 74] showed a half-maximal inhibitory concentration (IC50) of 115 nM.

For `O=C(NCCN1CCCC1)c1cnccc1Nc1nc(-c2cc(Cl)ccc2F)nc2c1CCC2` [Compound 75], the IC50 came out at 712 nM.

Regarding `O=C(NCCN1CCCCC1)c1cnccc1Nc1nc(-c2cc(Cl)ccc2F)nc2c1CCC2` [Compound 78], half-maximal inhibition (IC50) required 2460 nM.

`CCN(CC)CCNC(=O)c1cnccc1Nc1nc(-c2ccccc2F)nc2c1CCC2` [Compound 79] had a 50% inhibitory concentration (IC50) of 5490 nM. Against the preceding molecule, the IC50 is about 2.2-fold higher.

`Cc1cnccc1Nc1nc(-c2cc(Cl)ccc2F)nn2cccc12` [Compound 80]: the half-inhibitory concentration (IC50) worked out at 849 nM.

Take `Fc1ccccc1-c1cc(Nc2ccncc2)n2ncnc2n1` [Compound 82]: 8840 nM corresponded to half-maximal inhibition (IC50).

With `Fc1ccccc1-c1cc(Nc2ccncn2)n2ncnc2n1` [Compound 83], the IC50 was 16900 nM. This IC50 is about 1.9-fold higher than that of the molecule before.

For the next experiment, the system named is P-Smad 2/3. Briefly: Bleomycin-induced SMAD phosphorylation in rats, phospho SMAD 2/3 ELISA of lung tissue. The settings on record: male Sprague-Dawley rats, intratracheal bleomycin, oral 40 mg/kg bid days 1 to 5, versus control group; 40 mg/kg. The experiment is classed as in vivo, rat. As for the experimental part:
The effect of TGF-beta inhibitors on bleomycin-induced SMAD phosphorylation was studied in male Sprague-Dawley rats purchased from Charles River. Rats were housed in groups of two in the animal facility and provided with filtered air at a constant temperature and humidity. The rats were allowed to acclimate to the new environment for one week before all treatments. A 12:12 hour light-dark cycle was maintained, and the animals had free access to food and water.
To induce SMAD activation, rats were intubated with 0.5 ml of saline or 0.5 ml of 1.0 unit/ml of bleomycin by intratracheal injection under anesthesia. The anesthetic solution used was a mixture of 0.4 ml of ketamine (100 mg/ml) and 0.25 ml of xylazine (20 mg/ml) at a dose of 1.3 ml/kg.
On days 1 to 5, treated rats were weighed and orally dosed with compound 35 two-times a day at 40 mg/kg.
On Day 5, after dosing, rats were sacrificed by an overdose of the ketamine/xylazine cocktail, and then the trachea, heart and lungs of the animals were removed en bloc. All lung lobes were collected, dissected and stored in −80° C. for phospo SMAD ELISA assays.
To evaluate the effect of SMAD activation (an indicia of fibrosis), a phospho SMAD 2/3 ELISA assay was performed using the lung tissue of the sacrificed animals.
Background: An ELISA detects its analyte on a solid surface through an enzyme-linked reagent.
For the molecule `CNC(=O)c1cnccc1Nc1nc(-c2cc(Cl)ccc2F)nc2c1CCC2` [Compound 35], the “bleomycin-induced phosphorylation of P-Smad 2/3 in the lung” value is “significantly reduce”.

The experiment is the same for the next values; noted with them: male Sprague-Dawley rats, intratracheal bleomycin, oral 40 mg/kg bid days 1 to 5, versus control group; listed as compound 35, 40 mg/kg.
Take `CNC(=O)c1cnccc1Nc1nc(-c2cc(Cl)ccc2F)nc2c1CCC2` [Compound 35]: the “bleomycin-induced phosphorylation of P-Smad 2/3 in the lung” value is recorded as “reduce”.
